# Biological target: T1, Avi-tagged FL MALT-1 (Homo sapiens, UniProt Q9UDY8)
# T1 construct: Avi-tagged FL MALT-1 (Pharmaron, stored at −70° C.); Avi-tag; purchased Pharmaron
# T1 sequence (Q9UDY8 1-824): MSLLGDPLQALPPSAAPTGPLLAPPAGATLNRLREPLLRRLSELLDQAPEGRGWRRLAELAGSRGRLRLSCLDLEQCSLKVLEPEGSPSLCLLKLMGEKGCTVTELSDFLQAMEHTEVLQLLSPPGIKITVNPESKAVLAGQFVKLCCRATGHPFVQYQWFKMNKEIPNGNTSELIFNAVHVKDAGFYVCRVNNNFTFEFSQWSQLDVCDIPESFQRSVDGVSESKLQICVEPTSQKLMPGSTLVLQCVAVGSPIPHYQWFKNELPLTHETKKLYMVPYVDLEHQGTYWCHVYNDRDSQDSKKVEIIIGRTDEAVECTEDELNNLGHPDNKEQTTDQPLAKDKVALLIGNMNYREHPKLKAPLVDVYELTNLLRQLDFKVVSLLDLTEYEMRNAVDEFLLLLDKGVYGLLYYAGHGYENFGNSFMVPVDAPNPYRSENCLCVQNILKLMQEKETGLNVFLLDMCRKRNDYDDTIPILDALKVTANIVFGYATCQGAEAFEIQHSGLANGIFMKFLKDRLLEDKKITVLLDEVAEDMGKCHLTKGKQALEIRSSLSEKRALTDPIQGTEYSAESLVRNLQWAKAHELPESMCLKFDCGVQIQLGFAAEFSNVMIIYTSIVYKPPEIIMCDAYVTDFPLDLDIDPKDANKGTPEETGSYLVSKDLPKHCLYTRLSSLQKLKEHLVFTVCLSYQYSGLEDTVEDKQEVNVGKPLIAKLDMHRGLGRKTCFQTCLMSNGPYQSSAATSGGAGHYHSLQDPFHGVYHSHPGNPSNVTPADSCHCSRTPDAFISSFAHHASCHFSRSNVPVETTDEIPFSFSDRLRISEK
# Assay: MALT-1 Fluorogenic Peptide Cleavage Assay (MALT1 inhibition assay)
# Format: biochemical
# Settings: Ac-LRSR-AMC peptide substrate; 30 min pre-incubation, 90 min reaction at room temperature; fluorescence
# Description: Inhibition of MALT1 activity by a small molecule was evaluated using MALT-1 Fluorogenic Peptide Cleavage Assay. The assay utilizes a quenched AMC-labelled peptide that contains the MALT-1 recognition sequence and cleavage site (LRSR). MALT-1 mediated cleavage of the peptide relieves the quenching and leads to an increase in fluorescence at excitation (342 nm) and emission (441 nm).
# The following reagents were obtained commercially and used to prepare standard reagent formulations as further described below: N-2-hydroxyethylpiperazine-N-2-ethane sulfonic acid (HEPES) (1 M, pH 7.5, stored at 4° C.), sodium citrate (stored at RT), tris(2-carboxyethyl)phosphine hydrochloride (T-CEP) (500 mM, stored at −20° C.), ethylenediaminetetraacetic acid (EDTA) (500 mM, stored at RT), dimethylsulfoxide (DMSO, stored at RT), 3-[(3-cholamidopropyl)dimethylammonio]-1-propane sulphate (CHAPS) (stored at RT), dimethylsulfoxide (DMSO), DMSO (Fisher Scientific, stored at RT), Avi-tagged FL MALT-1 (Pharmaron, stored at −70° C.), Ac-LRSR-AMC Peptide (SM Biochemicals, stored at −20° C.), and ultrapure water (MILLI-Q®).
# The standard reagent formulations used in this assay were prepared and stored as follows. A 1.1 M solution of sodium citrate (161.3 g, 500 mL) was prepared and stored at room temperature. A 10% (w/v) CHAPS solution (2.0 g, 20 mL) was prepared and stored at 4° C. A 500 mM HEPES solution having pH of 6.89 was prepared from 200 mL of a 1 M HEPES solution having a pH of 7.5 using concentrated hydrochloric acid and brought to a final volume of 400 mL with MILLI-Q© H2O. The substrate, 10 mM Ac-LRSR-AMC Peptide, was prepared (10 mg, 1.370 mL DMSO) and stored at −20° C.
# Compounds were plated to provide a 2% DMSO final concentration using a ProxiPlate-384 Plus F Black 384-shallow well microplate. The assay-ready plates were equilibrated to room temperature. A reaction buffer (30 mL total volume) was prepared by combining HEPES (pH 6.89, 25 mM, 1.5 mL), sodium citrate (660 mM, 18.0 mL), T-CEP (1 mM, 0.06 mL), EDTA (0.1 mM, 0.06 mL), CHAPS (0.05%, 0.15 mL), DMSO (2%, 0.6 mL), and MILLI-Q® H2O (10.23 mL; 9.63 mL when backfilled to 2% DMSO) followed by thorough mixing.
# MALT-1 was thawed and kept on ice. Peptide substrate was thawed on the bench under ambient conditions. A MALT-1 enzyme working stock was prepared from Avi-tagged FL MALT-1 (40 nM in a prepared reagent volume of […]) and the reaction buffer (13.0 mL). MALT1 working stock (5 μL) was added to each well of the microplate. MALT-1 was pre-incubated with compounds for 30 minutes at room temperature.
# Two substrate working stocks (Km and 10×Km) were prepared. The 1×Km substrate was prepared from Ac-LRSR-AMC Peptide (50 μM in a prepared reagent volume of […]) and the reaction buffer (6.965 mL). The 10×Km substrate was prepared from Ac-LRSR-AMC Peptide ([…] in a prepared reagent volume of 196.0 μL) and the reaction buffer (6.804 mL). The reaction was initiated by the addition of substrate working stock (5 μL, 50 μM) to Km plates and the addition of substrate working stock (5 μL 280 μM) to 10×Km plates. The plates were covered and incubated on the bench at room temperature for 90 minutes.
# Fluorescence intensity was determined using a CLARIOstar microplate reader (BMG LABTECH) using the optimised AMC mode. Before taking readings, a 70% gain was applied on the neutral control well. Compound data were normalised to % Inhibition and used to plot sigmoidal concentration response curves to yield various parameters including IC50.
row,Compound,IC50 [nM]
1,"CC(=O)N(C)c1ncc(NC(=O)c2snc(-c3ccccc3)c2C2CC2)cc1C#N [I-51, N-(5-CYANO-6-(N-METHYLACETAMIDO) PYRIDIN-3-YL)-4-CYCLOPROPYL-3-PHENYLISOTHIAZOLE-5-CARBOXAMIDE]",≤ 400
2,"N#Cc1cc(NC(=O)c2snc(O)c2C2CC2)cnc1-n1nccn1 [I-52, N-(5-CYANO-6-(2H-1,2,3-TRIAZOL-2-YL) PYRIDIN-3-YL)-4-CYCLOPROPYL-3-HYDROXYISOTHIAZOLE-5-CARBOXAMIDE]",> 2500
3,"N#Cc1cc(NC(=O)c2snc(-c3ccccc3)c2C2CC2)cnc1N1CCOCC1 [I-53, N-(5-CYANO-6-MORPHOLINOPYRIDIN-3-YL)-4-CYCLOPROPYL-3-PHENYLISOTHIAZOLE-5-CARBOXAMIDE]",≤ 400
4,"CN1CCN(c2ncc(NC(=O)c3snc(-c4ccccc4)c3C3CC3)cc2C#N)CC1 [I-54, N-(5-CYANO-6-(4-METHYLPIPERAZIN-1-YL) PYRIDIN-3-YL)-4-CYCLOPROPYL-3-PHENYLISOTHIAZOLE-5-CARBOXAMIDE]",≤ 400
5,"CN(C)C(=O)c1ccc(NC(=O)c2snc(-c3ccccc3)c2C2CC2)cc1C(F)(F)F [I-55, 4-CYCLOPROPYL-N-(4-(DIMETHYL-CARBAMOYL)-3-(TRIFLUOROMETHYL) PHENYL)-3-PHENYLISOTHIAZOLE-5-CARBOXAMIDE]",≤ 400
6,"CC(C)c1nsc(C(=O)Nc2cnc(-n3nccn3)c(C#N)c2)c1C1CC1 [I-56, N-(5-CYANO-6-(2H-1,2,3-TRIAZOL-2-YL) PYRIDIN-3-YL)-4-CYCLOPROPYL-3-ISOPROPYLISOTHIAZOLE-5-CARBOXAMIDE]",≤ 400
7,"O=C(Nc1cnc(-n2nccn2)c(Cl)c1)c1nsc(-c2ccccc2)c1C(F)(F)F [I-57, N-(5-CHLORO-6-(2H-1,2,3-TRIAZOL-2-YL) PYRIDIN-3-YL)-5-PHENYL-4-(TRIFLUOROMETHYL)ISOTHIAZOLE-3-CARBOXAMIDE]",≤ 400
8,"O=C(Nc1cnc(C(=O)N2CC(O)C2)c(Cl)c1)c1snc(-c2ccccc2)c1C1CC1 [I-58, N-(5-CHLORO-6-(3-HYDROXYAZETIDINE-1-CARBONYL)PYRIDIN-3-YL)-4-CYCLOPROPYL-3-PHENYLISOTHIAZOLE-5-CARBOXAMIDE]",≤ 400
9,"O=C(Nc1ccc(C(=O)N2CC(O)C2)nc1)c1snc(-c2ccccc2)c1C1CC1 [I-59, 4-CYCLOPROPYL-N-(6-(3-HYDROXY-AZETIDINE-1-CARBONYL)PYRIDIN-3-YL)-3-PHENYLISOTHIAZOLE-5-CARBOXAMIDE]",> 2500
10,"CC(C)c1nsc(C(=O)Nc2cnc(-n3nccn3)c(Cl)c2)c1C1CC1 [I-60, N-(5-CHLORO-6-(2H-1,2,3-TRIAZOL-2-YL) PYRIDIN-3-YL)-4-CYCLOPROPYL-3-ISOPROPYLISOTHIAZOLE-5-CARBOXAMIDE]",≤ 400
11,N#Cc1cc(NC(=O)c2snc(-c3ccccc3)c2C2(O)COC2)cnc1-n1nccn1 [I-61],> 2500
12,"CN1Cc2cc(NC(=O)c3snc(-c4ccccc4)c3C3CC3)ccc2C1=O [I-62, 4-CYCLOPROPYL-N-(2-METHYL-1-OXOISOINDOLIN-5-YL)-3-PHENYLISOTHIAZOLE-5-CARBOXAMIDE]",> 2500
13,Cn1ccc2cc(NC(=O)c3snc(-c4ccccc4)c3C3CC3)ccc2c1=O [I-98],> 2500
14,O=C(Nc1cnc(-n2nccn2)c(Cl)c1)c1snc(-c2cccc3[nH]c(=O)ccc23)c1C(F)(F)F [I-99],≤ 400
15,N#Cc1cc(NC(=O)c2snc(-c3cccc4ncsc34)c2C2CC2)cnc1-n1nccn1 [I-100],≤ 400
16,Cn1ncc2cccc(-c3nsc(C(=O)Nc4cnc(-n5nccn5)c(C#N)c4)c3C3CC3)c21 [I-101],≤ 400
17,CN(C)c1nsc(C(=O)Nc2cnc(-n3nccn3)c(C#N)c2)c1C(F)(F)F [I-102],≤ 400
18,O=C(Nc1ccnc(C(F)(F)F)c1)c1snc(-c2cccc3ncsc23)c1C1CC1 [I-103],≤ 400
19,Cc1cc(NC(=O)c2snc(-c3cccc4ncsc34)c2C2CC2)ccn1 [I-104],≤ 400
20,COc1ccc2c(-c3nsc(C(=O)Nc4cnc(-n5nccn5)c(Cl)c4)c3C(F)(F)F)cccc2n1 [I-105],≤ 400

row,Compound,IC50 [nM]
1,COc1nccc2c(-c3nsc(C(=O)Nc4cnc(-n5nccn5)c(Cl)c4)c3C(F)(F)F)cccc12 [I-106],≤ 400
2,O=C(Nc1cnc(-n2nccn2)c(Cl)c1)c1snc(-c2cccc3c(=O)[nH]ccc23)c1C(F)(F)F [I-107],≤ 400
3,Cn1cccc(-c2nsc(C(=O)Nc3cnc(-n4nccn4)c(C#N)c3)c2C(F)(F)F)c1=O [I-108],1000 to 2500
4,N#Cc1cc(NC(=O)c2snc(-c3cccc4ncoc34)c2C2CC2)cnc1-n1nccn1 [I-109],≤ 400
5,N#Cc1cc(NC(=O)c2snc(C3CCOC3)c2C2CC2)cnc1-n1nccn1 (stereo not drawn) [I-110],400 to 1000
6,CN1Cc2cc(NC(=O)c3snc(-c4ccccc4)c3C3CC3)cnc2C1=O [I-111],> 2500
7,Cc1cccnc1-c1nsc(C(=O)Nc2cnc(-n3nccn3)c(C#N)c2)c1C1CC1 [I-112],≤ 400
8,Cc1cc(NC(=O)c2snc(-c3cccc4ncoc34)c2C2CC2)cnc1-n1nccn1 [I-113],≤ 400
9,N#Cc1cc(NC(=O)c2snc(-c3cccn4nccc34)c2C2CC2)cnc1-n1nccn1 [I-114],≤ 400
10,N#Cc1cc(NC(=O)c2snc(C3CCOC3)c2C2CC2)cnc1-n1nccn1 (stereo not drawn) [I-115],≤ 400
11,Cc1cn(C)nc1-c1nsc(C(=O)Nc2cnc(-n3nccn3)c(C#N)c2)c1C1CC1 [I-116],≤ 400
12,O=C(Nc1cnc(C(=O)N2CC(O)C2)c(Cl)c1)c1snc(-c2cccc3ncsc23)c1C1CC1 [I-117],≤ 400
13,O=C(Nc1cnc(-n2nccn2)c(Cl)c1)c1snc(-c2cccc3ncccc23)c1C1CC1 [I-118],≤ 400
14,O=C(Nc1cncc(C(F)(F)F)c1)c1snc(-c2cccc3ncccc23)c1C1CC1 [I-119],≤ 400
15,Cn1nnc2cccc(-c3nsc(C(=O)Nc4cnc(-n5nccn5)c(C#N)c4)c3C3CC3)c21 [I-120],≤ 400
16,CC(=O)N1CCC(c2nsc(C(=O)Nc3cnc(-n4nccn4)c(C#N)c3)c2C2CC2)CC1 [I-121],1000 to 2500
17,CN1CCC(c2nsc(C(=O)Nc3cnc(-n4nccn4)c(C#N)c3)c2C2CC2)CC1 [I-122],> 2500
18,N#Cc1cc(NC(=O)c2snc(-c3cccc4ncccc34)c2C2CC2)cnc1-n1nccn1 [I-123],≤ 400
19,CC(C)c1nsc(C(=O)Nc2ccnc(C(F)(F)F)c2)c1C1CC1 [I-124],1000 to 2500

# From patent US20260124222A1, “ISOTHIAZOLYLCARBOXAMIDE COMPOUNDS AND THEIR USE IN THERAPY” (HOTSPOT THERAPEUTICS, INC., priority 2022, published 2026)
